Consider 2 compounds from patent publication US5801174A, “Fused indole and quinoxaline derivatives, their preparation and use” (Neurosearch A/S, priority 1994, dated 1998).

Assay [1] concerns the target AMPA receptor. In words: AMPA receptor binding affinity (in vitro). As to conditions: Table 1. An excerpt:
In Vitro activity (receptor affinity):
(§1) The test results obtained by testing the compounds of the invention for their in-vitro AMPA receptor affinity and their ability to inhibit GABA release are presented in the following table: […]

Assay [2] concerns AMPA-induced clonic seizures in NMRI mice. In words: AMPA-induced clonic seizures. In kind it is in vivo. The following applies: Mus musculus; i.v. 5 min (or p.o. 30 min) before 0.3 μg icv AMPA, 10 female NMRI mice per dose; route of the value not given; read-out: ED50 (dose inhibiting 50% of the mice from having clonic seizures). How it is done:
The compound, 8-methyl-5-(4(N,N-dimethylsulphamoyl)-phenyl)-6,7,8,9-tetrahydro-1H-pyrrolo[3,2-h]isoquinoline-2,3-dione-3-oxime has also been tested for its ability to inhibit the clonic seizures induced by AMPA in the following test:
In Vivo activity (AMPA-induced clonic seizures)
AMPA given icv (intracerebroventricular) (15 μg/kg) to NMRI mice induces clonic seizures which should be inhibited by non-NMDA receptor antagonists. Method: Test compound was given i.v. 5 min (or p.o. 30 min) before a 0.3 μg icv administration of AMPA to 10 female NMRI mice (weighing 24-26 g) per dose. The number of mice experiencing clonic seizures within the next 5 min was noted. An ED50 value was calculated as the dose inhibiting 50% of the mice from having clonic seizures.

For assay [3], the system named is gerbil hippocampus CA1-layer, global ischaemia. In words: Transient Forebrain Ischemia Model (2-VO Gerbils). In kind it is in vivo. As to conditions: 30 mg/kg i.p. 30, 60 and 90 min post occlusion (total 90 mg/kg); ischaemic score 4 days later; Mann-Whitney test. How it is done: The compound, 8-methyl-5-(4-(N,N-dimethylsulphamoyl)-phenyl)-6,7,8,9-tetrahydro-1H-pyrrolo[3,2-h]isoquinoline-2,3-dione-3-oxime has also been tested in the following animal model of global ischaemia:
Transient Forebrain Ischemia Model (2-VO Gerbils)
Gerbils were anaesthetized with halothane, right and left carotid arteries located and occluded for 4 minutes. Animals were kept warm before and after the operation using heating lamps. During the operation the gerbils were placed on heating plates, body temperature controlled and maintained at 37°±0.5° C. Postocclusion, the gerbils were divided in two groups. One group received 30 mg/kg test compound i.p. 30, 60, and 90 min post occlusion (total dose was 90 mg/kg). The control group received 5.5% glucose i.p. at the same time intervals. Four days later, the animals were sacrificed, brains removed and cooled to -70° C. Thereafter, the brains were sectioned in […] thick sections of which 5-7 with hippocampal tissue were selected and stained with hematoxylin eosine (HE).
Based upon the degree of hippocampal damage, each hippocampus was categorised into one of four groups (Group 1: no damage in the CA1-layer; Group 2: the CA1-layer partly damaged; Group 3: the CA1-layer completely damaged; and Group 4: damage in more than just the CA1-layer). […]

Assay [4] deals with cultured cerebral cortex neurons. In words: 3H-GABA release, cultured cerebral cortex neurons. In kind it is cell-based. As to conditions: Cerebral cortex neuron; inhibition of stimulated 3H-GABA release, mouse cortical neurons, Table 1.
Source text: The compounds of the invention have also been tested for their ability to inhibit GABA release from cultured cerebral cortex neurons in the following test:
^3 H-GABA Release, Cortical Neurons
Background: Neurons which express receptors for excitatory amino acids can be depolarized by such compounds and this depolarization will ultimately lead to a release of transmitter substance from the neurons. Cultured neurons obtained from 15-day-old mouse embryo cortex are mainly GABAergic and express all types of excitatory amino acid receptors. This means that they can be stimulated by high potassium or by the excitatory amino acids, NMDA, AMPA and kainate to release their neurotransmitter GABA.
^3 H-GABA may be used to label the GABA transmitter pool in the neurons and the release of ^3 H-GABA from the neurons may be used as a simple functional model for studies of the effects of excitatory amino acids and their antagonists.
Method: Cerebral cortices of 16-day-old mouse embryos are chopped in 0.4×0.4 mm cubes. The tissue is dissociated by mild trypsinization (0.1% (wt/vol) trypsin, 37° C., 15 min) and subsequently inoculated into poly-L-lysine-coated 3-cm Petri dishes containing a slightly modified DMEM (24.5 mM KCI, 30 mM glucose) supplemented with p-aminobenzoate (7 μM), insulin (100 mU/L) and 10% (vol/vol) horse serum. Cells are maintained in culture for 5-7 days with the addition of the antimitotic agent cytosine arbinoside (40 μM) from day 2 in vitro to prevent glial profileration. For further details and references, see Drejer et al. Exp. Brain Res. 47, 259 (1982).
Release experiments are performed using the model described by Drejer et al. Life Sci. 38, 2077 (1986). Cerebral cortex neurons cultured in Petri dishes (30 mm) are added 100 μM γ-vinyl-GABA one hour before the experiment in order to inhibit degradation of GABA in the neurons. 30 min before the experiment 5 μCi ^3 H-GABA is added to each culture and after this preloading period the cell monolayer at the bottom of the dish is covered with a piece of nylon mesh to protect the cells against mechanical damage and to facilitate dispersion of medium over the cell layer. The preloading medium is removed and the Petri dishes are placed in a superfusion system consisting of a peristaltic pump continously delivering thermostated 37° C. superfusion medium HEPES buffered saline (HBS): 10 mM HEPES, 135 mM NaCl, 5 mM KCI, 0.6 mM MgSO4, 1.0 mM CaCl2 and 6 mM D-glucose; pH 7.4) from a reservoir to the top of the slightly tilted Petri dish. The medium is continously collected from the lower part of the dish and delivered to a fraction collector. Initially, the cells are superfused with HBS for 15 min (flow rate 2 ml/min). Then the cells are stimulated for 30 sec every 4 min by changing the superfusion medium from HBS to a corresponding medium containing […].
Test subtances are dissolved in 50% DMSO, 48% ethanol. The final DMSO and ethanol concentration in the assay must not exceed 0.1%.
The stimulated release of ^3 H-GABA (cpm) are corrected for the mean basal release(cpm) before and after stimulation.
The stimulated release in the presence of antagonists are expressed relative to the stimulated release and the IC50 value for the antagonist is calculated (the concentration (μM) of the test substance which inhibit 50% of the stimulated ^3 H-GABA release).
as §1

The structures appear in SMILES notation.

Take `CN1CCc2c(-c3ccc(S(=O)(=O)N(C)C)cc3)cc3c(c2C1)NC(=O)C3=NO` [8-methyl-5-(4-(N,N-dimethylsulphamoyl)-phenyl)-6,7,8,9-tetrahydro-1H-pyrrolo[3,2-h]-isoquinoline-2,3-dione-3-oxime]: the values for the IC50 in assay [1] and in assay [4] were 20 nM and 120 nM, respectively. Further, in assay [2], the ED50 was 3 mg/kg. For the same compound, in assay [3], the “neuroprotective effect in the gerbil 2-VO model” value was “significant neuroprotective effect”.
On to `CN1CCc2c(-c3ccc(S(=O)(=O)N(CCO)CCO)cc3)cc3c(c2C1)NC(=O)C3=NO` [8-methyl-5-(4-(N,N-bis(2-hydroxyethyl)sulphamoyl)-phenyl)-6,7,8,9-tetrahydro-1H-pyrrolo[3,2-h]-isoquinoline-2,3-dione-3-oxime], for which the figures for the IC50 in assay [1] and in assay [4] were 50 nM and 130 nM, respectively.

One may read the IC50 as the midpoint of a concentration-inhibition curve. A word on the ED50: it is the midpoint of the dose-response relation.
